The test system of test [1] is dynorphin A induced spinal cord injury model. The test is described as follows: Dynorphin A induced spinal cord injury model (hindlimb motor function). It counts as in vivo, rat. The text has this: Neuroprotective properties of BD-1008 and selected compounds of this invention have been evaluated in the dynorphin A induced spinal cord injury model. Along with several other neuropeptides, dynorphin A has potent vasoconstrictory effects on the vasculature of the rat brain and spinal cord; thus it provides a convenient, reproducible pharmacological means to induce and study ischemic central nervous system injury. Furthermore, localized effects of this peptide on the lumbosacral spinal cord following L4-L5 intervertebral injection allows for simple and straightforward neurological appraisals through assessment of hindlimb motor function.

The next test addresses Sigma receptors. The experiment in a line: Sigma receptor binding assay with [3H]-(+)-3-PPP, crude P2 membranes. The note with it: guinea pig brain membranes; determined in independent experiments. As to the method: Sigma receptors were labeled with [^3H]-(+)-3-PPP (109 Ci/mmol).
For most compounds in the study, a concentration range of 0.0005-100 nM was appropriate. […] Twelve concentrations of unlabelled ligand were incubated with 3 nM [^3H](+)-3-PPP as described in Methods. The CDATA iterative curve fitting program (EMF Software, Inc., Baltimore, MD) was used to determine IC50 values. Values are the average of 2-4 experiments, ±SEM. Each experiment was carried out in duplicate. The Cheng-Prussoff equation^27 was then used to convert IC50 values to apparent Ki values.

The next test concerns the target PCP receptors. The experiment in a line: Phencyclidine (PCP) receptor binding assay with [3H]TCP. The settings on record: guinea pig brain; determined in independent experiments.

Take `CN(CCc1ccc(Cl)c(Cl)c1)CCN1CCCC1` [BD-1008]: the “impact on the primary vascular responses to dynorphin A” value in test [1] (dynorphin A-induced reduction in lumbosacral blood flow) is “without any measurable impact”. Further, the “neurological recovery from the flaccid hindlimb paralysis” value in test [1] (paralysis from a 20 nanomole dose of dynorphin A, L4-L5 intervertebral injection) is “significantly improves neurological recovery”.

As a reminder, the Kd is the constant that tells how readily two partners part at equilibrium. Take `CCCN1CCC[C@H](c2cccc(O)c2)C1` [[^3H]-(+)-3-PPP]: the equilibrium dissociation constant (Kd) at Sigma receptors stood at 27.4 nM.

At PCP receptors, `c1csc(C2(N3CCCCC3)CCCCC2)c1` [[^3H]TCP] registered a Kd of 25 nM.

The values above are taken from patent EP0518216A2, “N-/Arylethyl/-N-alkyl-2-(1-pyrrolidinyl)ethylamine derivatives for CNS disorders” (G.D. Searle & Co., priority 1991, dated 1992).
